# Measured values as given in US20110092488A1, “Quninoline Methanol Compounds for the Treatment and Prevention of Parasitic Infections” (priority 2005, published 2011).
# Entries after “also recorded” stand apart in the source; their conditions may differ. Read-outs that look alike come from different tables or passages of the source.
# How the values were obtained:
# [1] = system: P. falciparum TM91C235; experiment: In vitro antimalarial activity against P. falciparum TM91C235; type: cell-based, Plasmodium falciparum
# Protocol: (§1) The in vitro activities of AAQMs against P. falciparum strains W2, D6, TM91C235 and TM90C2A were evaluated using the method of Desjardins et al. as modified by Milhous et al. W2 is chloroquine resistant and mefloquine sensitive, D6 is chloroquine sensitive but naturally less susceptible to mefloquine, TM91C235 is resistant to mefloquine, chloroquine and pyrimethamine as is TM90C2A, however this latter parasite is a two pfmdr1 copy strain. We routinely run mefloquine in this screen as a control to ensure assay validity.
# [2] = system: P. falciparum TM90C2A; experiment: In vitro antimalarial activity against P. falciparum TM90C2A; type: cell-based, Plasmodium falciparum
# Protocol: as §1
# [3] = system: P. falciparum D6; experiment: In vitro antimalarial activity against P. falciparum D6; type: cell-based, Plasmodium falciparum
# Protocol: as §1
# (§2) The combined effects of azithromycin (as represented by compound 196 on the horizontal axes of FIG. 4 through 6) and WR074086 (as represented by compound 14885 on vertical axes of FIGS. 4 through 6) against three strains of P. falciparum were investigated using isobologram analysis. First, the IC50s of each compound were determined as described above.
# [4] = system: P. falciparum W2; experiment: In vitro antimalarial activity against P. falciparum W2; type: cell-based, Plasmodium falciparum
# Protocol: as §1
# [5] = system: primary rat forebrain neurons; experiment: Neurocytotoxicity assay (MTT)
# Protocol: The neurocytotoxicity assay of AAQMs was conducted as per Dow et al.; The antimalarial potential of 4-quinolinecarbinolamines may be limited due to neurotoxicity and cross-resistance in mefloquine-resistant Plasmodium falciparum strains; Chemother. (48) 2624-2632 (2004) and is incorporated herein, by reference. This assay utilizes primary rat forebrain neurons and is a multi-endpoint screen. […] The AAQMs outlined in Table 1 were screened at 10, 100 and 1000 μM in triplicate, and the reduction in viability observed was determined using the 3-(4,5-dimethylthiazol-2-yl)-2,5-diphenyltetrazolium bromide (MTT) assay as per Dow et al., discussed above. Approximate IC50 values were calculated on the basis of the level of inhibition observed at each concentration. Full dose response assays were run for mefloquine and WR069878 with two fold dilutions (n=6 wells per dilution) and 11 dilutions for each drug. IC50s were calculated using Prism. Each time the assay is conducted, 20 μM mefloquine is included, as a control. […] Assays are re-run if the loss of viability induced by mefloquine is <40% or >60%. Neuroprotection experiments with 6,7-dinitroquinoxaline-2,3-dione (DNQX) and magnesium were performed as per Dow et al.; Transcriptional profiling of mefloquine-induced disruption of calcium homeostasis in neurons in vitro; Genomics (86)539-550 (2005), which is incorporated by reference, herein. Neurons were exposed to DNQX (100 μM) or magnesium (12 mM) for 5 min, followed by mefloquine (25 μM) or WR069878 (250 μM) for 20 min after which reduction in cell viability was determined. […] DNQX is an inhibitor of non-N-methyl-D-aspartate (NMDA) receptors, whilst magnesium inhibits the functioning of the inositol 1,4,5-trisphosphate (IP3)-mediated calcium signaling pathway at several points. The effects of mefloquine and WR069878 on neuronal calcium homeostasis were assessed utilizing confocal microscopy as per Dow et al, as discussed in Antimicrob Agents Chemother. (48)2624-2632 (2004), cited above, and incorporated by reference, herein. Briefly neurons were loaded with calcium sensitive dye Fluo 3-A for 1 h and were washed prior to image experiments. Neurons were ‘spiked’ with 100 μM mefloquine or WR069878. Subsequent changes in neuronal calcium homeostasis were recorded as fluctuations in the emitted fluorescence of fluo-3-complexed calcium at 530 nm (excitation was 488 nm). Sequential image scans of fields containing 5-25 neurons were used to construct temporal profiles. Scans were made at 10 s intervals. Fluorescence levels for each neuron were normalized 12 to time zero values. Data were then pooled from three and five independent experiments for mefloquine and WR069878 respectively.
# [6] = Protocol: The AAQMs indicated in Table 1 (10 μM) were added to a mixture containing an NADPH-regenerating buffer (1.25 mM β-NADP+, 3.3 mM glucose-6-phosphate, and 3.3 mM MgCl2) and 0.5 mg/ml pooled human liver microsomes to a final volume of 125 μl. The mixtures were incubated for 5 minutes at 37° C. and the reactions were initiated by adding 25 μl glucose-6-phosphate dehydrogenase to a final concentration of 1 unit/ml. The reactions were maintained at 37° C. until they were terminated by the addition of an equal volume of 100% ice cold acetonitrile at 0, 10, 30, 60, and 120 minutes. Samples were centrifuged to pellet the proteins and the supernatant was analyzed by LC-MS/MS in duplicate using fast LC gradient or isocratic methods. AAQM concentrations were quantified with external calibration, using plots of response v. amount. Chromatograms were analyzed using the mass spectrometry software Xcalibur® QuanBrowser (for ThermoFinnigan® instruments) or MassLynx® (for Waters® instruments). Concentrations of AAQMs remaining at each time point were calculated using the unknown peak areas and corresponding calibration curves. In order to calculate the half-life, a first-order rate of decay was assumed. […] All reagents were purchased from Sigma except for the microsomes, which were obtained from BD Gentest®. For metabolite identification, samples were prepared as described above with human liver microsomes. Additional samples were prepared with for each AAQM using mouse, rat, and rhesus monkey liver microsomes. Samples were separated using an LC gradient method and analyzed by full scan LC-MS and LC-MS/MS. […] These MS/MS data were also used to do preliminary structural elucidation. […] The relative percentage of formation of each metabolite was determined in a semi-quantitative manner since standards of each metabolite were not available. Peak areas of each detected AAQM metabolite and the internal standard were determined, and their ratios were calculated as metabolite area/internal standard area. The percent formation of each metabolite was determined as the area ratio divided by the sum of all the metabolite area ratios.
# [7] = system: neuronal calcium homeostasis; experiment: Neuronal calcium homeostasis, confocal microscopy (Fluo-3); settings: 100 μM, FIG. 2(b)
# Protocol: (§3) The neurocytotoxicity assay of AAQMs was conducted as per Dow et al.; The antimalarial potential of 4-quinolinecarbinolamines may be limited due to neurotoxicity and cross-resistance in mefloquine-resistant Plasmodium falciparum strains; Chemother. (48) 2624-2632 (2004) and is incorporated herein, by reference. This assay utilizes primary rat forebrain neurons and is a multi-endpoint screen. […] The AAQMs outlined in Table 1 were screened at 10, 100 and 1000 μM in triplicate, and the reduction in viability observed was determined using the 3-(4,5-dimethylthiazol-2-yl)-2,5-diphenyltetrazolium bromide (MTT) assay as per Dow et al., discussed above. Approximate IC50 values were calculated on the basis of the level of inhibition observed at each concentration. […] IC50s were calculated using Prism. […] Neurons were exposed to DNQX (100 μM) or magnesium (12 mM) for 5 min, followed by mefloquine (25 μM) or WR069878 (250 μM) for 20 min after which reduction in cell viability was determined. […] The effects of mefloquine and WR069878 on neuronal calcium homeostasis were assessed utilizing confocal microscopy as per Dow et al, as discussed in Antimicrob Agents Chemother. […] Subsequent changes in neuronal calcium homeostasis were recorded as fluctuations in the emitted fluorescence of fluo-3-complexed calcium at 530 nm (excitation was 488 nm). […]
# [8] = system: primary rat forebrain neurons; experiment: Neuroprotection experiments with DNQX and magnesium; settings: DNQX 100 μM or magnesium 12 mM; mefloquine 25 μM, WR069878 250 μM; FIG. 2(c)
# Protocol: as §3
# [9] = rats; cited from earlier work
# [10] = humans; cited from earlier work
# [11] = single mefloquine treatment dose; cited from earlier work
# [12] = biological target: human multiple drug resistance transporter (MDR1), P-glycoprotein (Homo sapiens, UniProt P08183); settings: not told; cited from earlier work
# [13] = Phototoxicity in mice (historical experiments); settings: WR030090: 25 or 50 mg/kg orally, WRAIR archival data
# [14] = system: FVO strain of P. falciparum; experiment: Efficacy in P. falciparum-challenged Aotus monkeys; type: in vivo, Plasmodium falciparum in Aotus lemurinus lemurinus; settings: 10 mg/kg/day x7 oral; groups of two; Cure = parasite free 90 days; R = average day of recrudescence; Failure = rescued with mefloquine
# Protocol: (§4) The P. berghei-mouse efficacy data were obtained from the WRAIR chemical information system (subcutaneous testing) or from recent tests conducted at AFRIMS, Thailand or at the University of Miami using a modified version of the Thompson test. Groups of five mice were inoculated through i.p. injection on day 0 (usually with 1×106 P. berghei-parasitized erythrocytes). The drugs in Table 1 were administered either subcutaneously or orally for three days (usually on days 3-5) at doses of 1.25-160 mg/kg in two to four fold increments. Cure was defined as survival until day 60 (subcutaneous dosing) or day 31 post-treatment (oral dosing). […] The minimum effective dose was the lowest dose level that cured at least one of five mice. The Aotus studies were performed according to Obaldia; Detection of Klebsiella pnuumoniae antibodies in Aotus l. lemurinus (Panamanian owl monkey) using an enzyme linked immunosorbent assay (ELIA) test; Lab Anim (25)133-141 (1991) and Obaldia et al., WR 238605, chloroquine, and their combinations as blood schizonticides against a chloroquine-resistant strain of Plasmodium vivax in Aotus monkeys; Am. J. Trop. Med. Hyg. (56)508-510 (1997), which are incorporated by reference, herein. Groups of two Aotus lemurinus 6 lemurinus of the karyotype VIII or IX (27) male and female monkeys with weights ranging from 742-970 g were inoculated with 5×10^6 parasites of either the FVO strain of P. falciparum or the AMRU1 strain of P. vivax. Both of these strains are chloroquine resistant. […] Monkeys were examined and thick Giemsa-stained blood smears were prepared and enumerated daily (17) to monitor the course of infection. […] In some instances, a high dose of the test drug was used to retreat monkeys instead of the mefloquine rescue. Monkeys are considered cured if they are parasite free 90 days post treatment. […] Plasma samples were taken from the monkeys in some studies for quantification of metabolites. Additional blood samples were taken as appropriate for complete blood counts and serum chemistry. Research was conducted in compliance with the Animal Welfare Act and other federal statutes and regulations relating to animals and experiments involving animals and adheres to principles stated in the Guide for the Care and Use of Laboratory Animals, NRC Publication, 1996 edition (34).
# [15] = Aotus, 10 mg/kg/day oral x7
# Protocol: as §4
# [16] = system: P. falciparum D6; experiment: Isobologram analysis azithromycin and WR074086, P. falciparum D6; type: cell-based, Plasmodium falciparum
# Protocol: as §2
# (§5) Next, IC50s were determined with different fractional starting concentrations of each compound. For example in line C of FIG. 5, the starting concentration of azithromycin was 12500 ng/ml whereas the starting concentration of WR074086 was 5 ng/ml. Each of these starting concentrations is half of that used when each compound was tested alone. […] In the data tables, lines D-H represent other combinations of starting concentrations of each compound.
# (§6) For each pair of starting concentrations for each drug, fractional inhibitory concentrations were determined using the following formula: FIC=IC50 in combination/IC50 alone.
# (§7) The FICs for the eight tests are plotted as indicated in FIG. 4 through FIG. 6 for each of three P. falciparum strains. Graphs of this type are called isobolograms and additivity is represented by an overall FIC SUM of 1, as represented by the straight line joining the two axes. A potentiative effect is represented by a concave curve below the straight line, since IC50s in combination are lower than expected. Antagonism is represented by a convex curve above the straight line, since IC50s in combination are higher than expected.
# [17] = system: P. falciparum D6, W2 and TM91C235; experiment: Isobologram analysis azithromycin and WR074086, P. falciparum D6, W2 and TM91C235; type: cell-based, Plasmodium falciparum; settings: WR074086 combined with azithromycin; in many instances; FIGS. 4-6
# Protocol: as §2, §5, §6
# as §7, with “Antagonism is represented by a convex curve above the straight line, since IC50s in combination are higher than expected.” left out
# [18] = system: Plasmodium falciparum malaria; settings: P. falciparum malaria, South East Asia; WR030090: field trials; cited from earlier work
smiles,measurement,setting,value
"OC(c1cc(C(F)(F)F)nc2c(C(F)(F)F)cccc12)C1CCCCN1 (stereo not shown) [Mefloquine, reference compound]",Activity against P. falciparum TM91C235 (IC50 in ng/ml),[1],15 ng/mL
same,IC50,"[1]; Table 4, read-out: Median IC50 against P. falciparum TM91C235",35 nM
same,Mean IC50 +/- SD against P. falciparum TM91C235,"[1]; control, last 15 assays",15.7 ± 2.7 ng/mL
same,IC90 against TM91C235,[1]; text b26,89 ng/mL
same,IC90 against TM90C2A,[2],101 ng/mL
same,IC90 against D6,[3],20 ng/mL
same,IC90 against W2,[4],3.9 ng/mL
same,IC50,"[5]; read-out: Median IC50 against rat neurons, Table 4",20 µM
same,IC50,"[5]; read-out: Neurotoxicity IC50, full dose response, FIG. 2(a)",27 µM
same,IC50,"[5]; read-out: Neurotoxicity ranking (IC50 in μM), approximate IC50 from screen at 10, 100 and 1000 μM, MTT",20 µM
same,"Half-life, human liver microsomes",[6],> 120 min
same,Effect on intracellular calcium (Fluo-3 fluorescence),[7],increases intracellular calcium concentrations
same,Neurotoxicity blocked by DNQX and supra-physiological magnesium,[8],is blocked
same,Maximum concentration in CNS,[9],113 µM
same,Maximum concentration in CNS,[10],52 µM
same,Peak plasma concentrations,[11],800 to 8000 ng/mL
same,PgP interaction,[12],PgP substrate and inhibitor
same,Phototoxicity in mice,[13],Not phototoxic at tolerated doses
CCCCN(CCCC)CC(O)c1cc(-c2ccc(F)cc2)nc2c(Cl)cc(Cl)cc12 (stereo not shown) [WR074086],Activity against P. falciparum TM91C235 (IC50 in ng/ml),[1],3.4 ng/mL
same,TM91C235 IC90,[1]; Table 2,7.0 ng/mL
same,"IC50 against P. falciparum D6, compound alone",[3]; FIG. 5,1.8086 ng/mL
same,Outcome in Aotus,[14],"cleared parasitemias, but recrudescence was subsequently observed; also recorded: Clear (R25)"
same,Mean peak concentration,[15],129 ng/mL
same,Plasma conc on day 1 (ng/ml) 2 h,"[15]; day 1, 2 h",179 ng/mL
same,Plasma conc on day 1 (ng/ml) 24 h,"[15]; day 1, 24 h",4.0 ng/mL
same,Plasma conc. on day 7 (ng/ml) 2 h,"[15]; day 7, 2 h",78 ng/mL
same,Plasma conc. on day 7 (ng/ml) 24 h,"[15]; day 7, 24 h",78 ng/mL
same,FIC (IC50 in combination/IC50 alone),"[16]; Line C FIG. 5: starting azithromycin 12500 ng/ml, WR074086 5 ng/ml",0.399
same,FIC sum,"[16]; azithromycin + WR074086, Line C FIG. 5",0.648
same,Minimum fractional inhibitory concentration (FIC),[17],< 0.5
C=C[C@H]1C[N@@]2CC[C@H]1C[C@H]2[C@H](O)c1ccnc2ccc(OC)cc12 [quinine],Cure rate,[18],26-50%
